Laboratory results published in patent publication US5585385A, “Heterocyclic compounds, their production and use as tachykinin reactor antagonists” (Takeda Chemical Industries, Ltd., priority 1993, dated 1996).

Assays:
substance P receptor = molecular target: T1, substance P receptor (Homo sapiens, UniProt P25103); experiment: Radioligand receptor binding inhibitory activity using receptor from human lymphoblast cells (IM-9), 125I-BHSP; settings: human IM-9 cell receptor, 25° C., 30 minutes, pH 7.4, n=1
T1 construct: The receptor was prepared from human lymphoblast cells (IM-9); endogenous in cells; host or cells: IM-9 human lymphoblast cells (crude membrane preparation)
Procedure: Radioligand receptor binding inhibitory activity
Binding inhibitory activity using receptor from human lymphoblast cells (IM-9)
The method of A. Margaret "Molecular Pharmacology 42, p.458 (1992)" was modified and used. The receptor was prepared from human lymphoblast cells (IM-9). IM-9 cells (2×10^5 cells/ml) were inoculated and incubated for 3 days (one liter), which was then subjected to centrifuge for 5 minutes at 500×g to obtain cell pellets. The pellets were washed once with phosphate buffer (Flow Laboratories, CAT. No. 28-103-05), which were then crushed using Polytron.homogenizer "Kinematika, Germany" in 30 ml of 50 mM Tris-HCl buffer (pH 7.4) containing 120 mM sodium chloride, 5 mM potassium chloride, 2 μg/ml chymostatin, 40 μg/ml bacitracin, 5 μg/ml phosphoramidon, 0.5 mM phenylmethyl sulfonyl fluoride, 1 mM ethylenediamine tetra-acetic acid, which was subjected to centrifuge at 40,000×g for 20 minutes. The residue was washed twice with 30 ml of the above-mentioned buffer, which was then preserved frozen (-80° C.) as a specimen of the receptor.
The specimen was suspended in a reaction buffer (50 mM Tri-HCl buffer (pH 7.4), 0.02% bovine serum albumin, 1 mM phenylmethylsulfonyl fluoride, 2 μg/chymostatin, 40 μg/ml bacitracin, 3 mM manganese chloride) and 100 ul portion was the suspension was used in the reaction. After addition of the sample and ^125 I-BHSP (0.46 KBq), the reaction was allowed to proceed in 0.2 ml of reaction buffer at 25° C. for 30 minutes. The amount of nonspecific binding was determined by adding substance P at a final concentration of 2×10^-6 M. After the reaction, using a cell harvester (290 PHD, Cambridge Technology, Inc, U.S.A.), rapid filtration was carried out through a glass filter (GF/B, Whatman, U.S.A.) to stop the reaction. After washing three times with 250 ul of 50 mM of Tris-HCl buffer (pH 7.4) containing 0.02% bovine serum albumin, the radioactivity remaining on the filter was determined with a gamma counter. Before use, the filter was immersed in 0.1% polyethyleneimine for 24 hours and air-dried. […] (Radioligand means substance P labelled with ^125 I.) The number of this experiment is one.

[1] = system: plasma extravasation induced by capsaicin in trachea; experiment: Inhibitory effect on plasma extravasation induced by capsaicin in trachea of guinea pigs; assay type: in vivo, guinea pigs (Hartley type white male); settings: Cavia porcellus, iv, 5 min, 5 min before capsaicin (150 μg/kg i.v.), guinea pig trachea, n=6; for inhibition in vivo at 0.1 mg/kg: 0.1 mg/kg i.v.; for inhibition in vivo at 0.03 mg/kg: 0.03 mg/kg i.v.
Procedure: Inhibitory effect on plasma extravasation induced by capsaicin in trachea of guinea pigs
Guinea pigs (Hartley type white male guinea pigs), (n=6) were anesthetized with 35 mg/kg of pentobarbital injected intraperitoneally (i.p.), then test compounds were administered intravenously (i.v.). After 5 minutes, a mixed solution of capsaicin (150 μg/kg) and Evans' blue dye (20 mg/kg) was administered intravenously to cause reaction. Ten minutes later, test animals were sacrificed by cutting the aorta, then perfused through pulmonary artery with 50 ml of physiological saline. The trachea was excised, and its wet weight was measured. The trachea was incubated at room temperature in 1 ml of acetone-0.3% sodium sulfate (7:3) overnight and Evans' blue dye was extracted from the trachea. The extract solution was centrifuged at 2800 rpm for 5 minutes. The amount of Evans' blue dye in the supernatant was quantified by measuring absorbance at […].
Plasma extravasation was expressed in terms of the amount of Evans' blue dye (μg) relative to the weight of the trachea (g). The efficacy of the drug was evaluated by calculating the % inhibition in accordance with the following formula. [formula] A: the amount of Evan's blue dye (μg/g) in each test animal B: the mean amount of Evan's blue dye (μg/g) of the group untreated with capsaicin.
C: the mean amount of Evan's blue dye (μg/g) of control group

T1 sequence (P25103 whole entry): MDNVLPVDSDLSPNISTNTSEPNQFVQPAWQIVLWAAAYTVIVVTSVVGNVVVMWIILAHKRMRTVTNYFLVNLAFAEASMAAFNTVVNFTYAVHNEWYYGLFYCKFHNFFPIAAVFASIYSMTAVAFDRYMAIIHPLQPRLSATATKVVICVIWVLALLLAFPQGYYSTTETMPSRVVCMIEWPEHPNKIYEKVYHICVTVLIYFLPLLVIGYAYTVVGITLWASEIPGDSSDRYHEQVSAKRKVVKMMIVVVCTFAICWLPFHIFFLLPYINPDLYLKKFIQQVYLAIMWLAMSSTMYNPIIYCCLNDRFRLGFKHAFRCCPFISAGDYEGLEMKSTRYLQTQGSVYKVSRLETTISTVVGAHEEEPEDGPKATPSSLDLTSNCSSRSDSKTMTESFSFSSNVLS

IC50 (substance P receptor) | Compound | inhibition in vivo at 0.1 mg/kg [1] | inhibition in vivo at 0.03 mg/kg [1]
170 pM | CN(Cc1cc(C(F)(F)F)cc(C(F)(F)F)c1)C(=O)c1c(-c2ccc(F)cc2)c2ccncc2c(=O)n1C [Example 8, N-[3,5-Bis(trifluoromethyl)benzyl]-4-(4-fluorophenyl)-1,2-dihydro-N, 2-dimethyl-1-oxo-3-pyrido[3,4-c]pyridine carboxamide] | 64.9% | 
280 pM | CN(Cc1cc(C(F)(F)F)cc(C(F)(F)F)c1)C(=O)c1c(-c2ccc(F)cc2)c2ccn(C)c2c(=O)n1C [Example 39, N-[3,5-Bis(trifluoromethyl)benzyl]-4-(4-fluorophenyl)-6,7-dihydro-N,1,6-trimethyl-7-oxo-5-pyrrolo[2,3-c]pyridinecarboxamide] | 67.9% | 
200 pM | CN(Cc1cc(C(F)(F)F)cc(C(F)(F)F)c1)C(=O)c1c(-c2ccc(F)cc2)c2nccnc2c(=O)n1C [Example 7, N-[3,5-Bis(trifluoromethyl)benzyl]-8-(4-fluorophenyl)-5,6-dihydro-N, 6-dimethyl-5-oxo-7-pyrido[3,4-b]pyrazine carboxamide] | 71.9% | 
340 pM | Cc1ccc(-c2c(C(=O)N(C)Cc3cc(C(F)(F)F)cc(C(F)(F)F)c3)n(C)c(=O)c3ncccc23)cc1 [Example 56, N-[3,5-Bis(trifluoromethyl)benzyl]-7,8-dihydro-N, 7-dimethyl-5-(4-methylphenyl)-8-oxo-6-pyrido[3,4-b]pyridinecarboxamide] |  | 58.1%
1100 pM | CN(Cc1cc(C(F)(F)F)cc(C(F)(F)F)c1)C(=O)c1c(-c2ccc(F)cc2)c2scnc2c(=O)n1C [Example 41, N-[3,5-Bis(trifluoromethyl)benzyl]-7-(4-fluorophenyl)-4,5-dihydro-N, 5-dimethyl-4-oxo-6-thiazolo[4,5-c]pyridinecarboxamide] | 46.9% | 
400 pM | CN(Cc1cc(C(F)(F)F)cc(C(F)(F)F)c1)C(=O)c1c(-c2ccccc2)c2c(c(=O)n1C)CNCC2 [Example 54, N-[3,5-Bis(trifluoromethyl)benzyl]-1,2,5,6,7,8-hexahydro-N,2-dimethyl-1-oxo-4-phenyl-3-pyrido[3,4-c]pyridinecarboxamide] | 48.3% | 
180 pM | CN(Cc1cc(C(F)(F)F)cc(C(F)(F)F)c1)C(=O)c1c(-c2ccc(F)cc2)c2c(c(=O)n1C)CCCN2 [Example 27, N-[3,5-Bis(trifluoromethyl)benzyl]-8-(4-fluorophenyl)-1,2,3,4,5,6-hexahydro-N, 6-dimethyl-5-oxo-7-pyrido[4,3-b]pyridinecarboxamide] | 74% | 
150 pM | CN(Cc1cc(C(F)(F)F)cc(C(F)(F)F)c1)C(=O)c1c(-c2ccc(F)cc2)c2c(c(=O)n1C)CNCC2 [Example 53, N-[3,5-Bis(trifluoromethyl)benzyl]-4-(4-fluorophenyl)-1,2,5,6,7,8-hexahydro-N,2-dimethyl-1-oxo-3-pyrido[3,4-c]pyridinecarboxamide] | 59.9% | 
80 pM | CN(Cc1cc(C(F)(F)F)cc(C(F)(F)F)c1)C(=O)c1c(-c2ccc(F)cc2)c2ccsc2c(=O)n1C [Example 13, N-[3,5-Bis(trifluoromethyl)benzyl]-4-(4-fluorophenyl)-6,7-dihydro-N, 6-dimethyl-7-oxo-5-thieno[2,3-c]pyridinecarboxamide] | 76.1% | 
80 pM | CN(Cc1cc(C(F)(F)F)cc(C(F)(F)F)c1)C(=O)c1c(-c2ccc(F)cc2)c2cccnc2c(=O)n1C [Example 1, N-[3,5-Bis(trifluoromethyl)benzyl]-5-(4-fluorophenyl)-7,8-dihydro-N, 7-dimethyl-8-oxo-6-pyrido[3,4-b]pyridine carboxamide] |  | 76.1%
1300 pM | CN(Cc1cc(C(F)(F)F)cc(C(F)(F)F)c1)C(=O)c1c(-c2ccccc2)c2c(c(=O)n1C)N(C)CCC2 [Example 49, N-[3,5-Bis(trifluoromethyl)benzyl]-1,2,3,4,7,8-hexahydro-5-phenyl-N,1,7-trimethyl-8-oxo-6-pyrido[3,4-b]pyridinecarboxamide] | 66.7% | 
3800 pM | COc1ccc(-c2c(C(=O)N(C)Cc3cc(C(F)(F)F)cc(C(F)(F)F)c3)n(C)c(=O)c3ncccc23)cc1 [Example 57, N-[3,5-Bis(trifluoromethyl)benzyl]-7,8-dihydro-5-(4-methoxyphenyl)-N,7-dimethyl-8-oxo-6-pyrido[3,4-b]pyridinecarboxamide] | 51.4% | 
340 pM | CN(Cc1cc(C(F)(F)F)cc(C(F)(F)F)c1)C(=O)c1c(-c2ccccc2)c2cccnc2c(=O)n1C [Example 36, N-[3,5-Bis(trifluoromethyl)benzyl]-7,8-dihydro-N, 7-dimethyl-8-oxo-5-phenyl-6-pyrido[3,4-b]pyridinecarboxamide] |  | 54.3%
310 pM | CN(Cc1cc(C(F)(F)F)cc(C(F)(F)F)c1)C(=O)c1c(-c2ccc(F)cc2)c2sccc2c(=O)n1C [Example 17, N-[3,5-Bis(trifluoromethyl)benzyl]-7-(4-fluorophenyl)-4,5-dihydro-N, 5-dimethyl-4-oxo-6-thieno[3,2-c]pyridinecarboxamide] | 51.5% | 
120 pM | Cc1ccc(-c2c3c(c(=O)n(C)c2C(=O)N(C)Cc2cc(C(F)(F)F)cc(C(F)(F)F)c2)CN(C)CC3)cc1 [Example 59, N-[3,5-Bis(trifluoromethyl)benzyl]-1,2,5,6,7,8-hexahydro-N,2,7-trimethyl-4-(4-methylphenyl)-1-oxo-3-pyrido[3,4-c]pyridinecarboxamide] |  | 55%
50 pM | Cc1ccccc1-c1c2c(c(=O)n(C)c1C(=O)N(C)Cc1cc(C(F)(F)F)cc(C(F)(F)F)c1)CCCN2 [Example 26, N-[3,5-Bis(trifluoromethyl)benzyl]-1,2,3,4,5,6-hexahydro-N, 6-dimethyl-8-(2-methylphenyl)-5-oxo-7-pyrido[4,3-b]pyridinecarboxamide] |  | 46.2%
400 pM | CN1CCc2c(-c3ccccc3)c(C(=O)N(C)Cc3cc(C(F)(F)F)cc(C(F)(F)F)c3)n(C)c(=O)c2C1 [Example 50, N-[3,5-Bis(trifluoromethyl)benzyl]-1,2,5,6,7,8-hexahydro-N,2,7-trimethyl-1-oxo-4-phenyl-3-pyrido[3,4-c]pyridinecarboxamide] | 52.2% | 
720 pM | Cc1ccc(-c2c(C(=O)N(C)Cc3cc(C(F)(F)F)cc(C(F)(F)F)c3)n(C)c(=O)c3cnccc23)cc1 [Example 58, N-[3,5-Bis(trifluoromethyl)benzyl]-1,2-dihydro-N, 2-dimethyl-4-(4-methylphenyl)-1-oxo-3-pyrido[3,4-c]pyridinecarboxamide] | 35.2% | 
